The Ki is the equilibrium dissociation constant of an inhibitor or competing ligand from its target.

Consider 25 molecules from patent publication US7109243B2 (IRM LLC, priority 2003, dated 2006).

Molecules are shown by their SMILES.

Test [1] deals with T1, Cathepsin K (Homo sapiens, UniProt P43235).
T1 sequence (P43235 115-329): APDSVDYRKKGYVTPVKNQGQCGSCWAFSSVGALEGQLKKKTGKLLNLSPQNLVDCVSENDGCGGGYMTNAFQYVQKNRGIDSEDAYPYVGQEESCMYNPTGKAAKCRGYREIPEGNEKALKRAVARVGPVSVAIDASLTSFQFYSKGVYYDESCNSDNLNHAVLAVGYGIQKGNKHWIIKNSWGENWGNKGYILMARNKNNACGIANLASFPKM
Kind of test: Cathepsin K inhibition assay (fluorogenic peptide substrate); selectivity ratio vs cathepsin S. The test is classed as biochemical. Conditions: ratio of cathepsin K inhibition constant to cathepsin S inhibition constant; Table II. A digest of the protocol:
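Fluorogenic kinetic assay, started with acetyl-Lys-His-Pro-Lys-aminocarbamoylcoumarin at 40 μM final, hydrolysis followed at ex 380/em 450 nm. Apparent inhibition constants from progress curves, converted to competitive inhibition constants. Selectivity expressed as isozyme inhibition constant divided by cathepsin S inhibition constant.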

For test [2], the target named is Cathepsin S (Homo sapiens, UniProt P25774). Kind of test: Cathepsin S inhibition assay (fluorogenic peptide substrate). The test is classed as biochemical. Conditions: Table II, compounds of Formula I; read-out: Ki Cat. S. A digest of the protocol: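 Ki values come from nonlinear fitting of inhibited hydrolysis rates, taking free and total inhibitor concentrations as equal. Rates measured as rising fluorescence at 380/450 nm after reaction start with 50 μM final acetyl-HPVK-aminocarbamoylcoumarin.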
Sequence of Cathepsin S (P25774 115-331, species assumed): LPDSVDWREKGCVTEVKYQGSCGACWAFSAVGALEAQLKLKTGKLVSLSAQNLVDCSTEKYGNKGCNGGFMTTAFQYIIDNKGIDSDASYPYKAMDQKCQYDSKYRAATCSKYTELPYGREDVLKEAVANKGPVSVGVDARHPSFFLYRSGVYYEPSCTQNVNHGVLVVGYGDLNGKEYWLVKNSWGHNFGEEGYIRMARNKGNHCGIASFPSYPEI

In the case of `COc1ccc(NCCNC(=O)[C@H](CC2CCCCC2)NC(=O)c2cccc(C(F)(F)F)c2)cc1` [Compound 106, (S)-N-{2-Cyclohexyl-1-[2-(4-methoxy-phenylamino)-ethylcarbamoyl]-ethyl}-3-trifluoromethyl-benzamide], in test [1], the “Selectivity for Cat. S over Cat. K” value was “++ (++, >100)”. Also, the Ki in test [2] was less than 100 nM.

For `O=C(Cc1ccc(F)cc1Cl)N[C@@H](CC1CCCCC1)C(=O)NCCNc1ccc(F)cc1` [Compound 107, 2-(S)-[2-(2-Chloro-4-fluoro-phenyl)-acetylamino]-3-cyclohexyl-N-[2-(4-fluoro-phenylamino)-ethyl]-propionamide], the “Selectivity for Cat. S over Cat. K” value in test [1] was “+++ (+++, >1000)”. The Ki in test [2] is less than 100 nM.

With `COc1ccc(NCCNC(=O)[C@H](CC2CCCCC2)NC(=O)c2cccc(C)c2Cl)cc1` [Compound 108, (S)-2-Chloro-N-{2-cyclohexyl-1-[2-(4-methoxy-phenylamino)-ethylcarbamoyl]-ethyl}-3-methyl-benzamide], the “Selectivity for Cat. S over Cat. K” value in test [1] was “++ (++, >100)”. In addition, in test [2], the Ki is less than 100 nM.

In the case of `COc1ccc(NCCNC(=O)[C@H](CC2CCCCC2)NC(=O)c2ccc(OCc3ccccc3)cc2)cc1` [Compound 109, (S)-4-Benzyloxy-N-{2-cyclohexyl-1-[2-(4-methoxy-phenylamino)-ethylcarbamoyl]-ethyl}-benzamide], in test [1], the “Selectivity for Cat. S over Cat. K” value is “+++ (+++, >1000)”. Further, in test [2], the Ki was less than 100 nM.

In the case of `COc1ccc(NCCNC(=O)[C@H](CC2CCCCC2)NC(=O)c2cc(C)c(OCc3ccccc3)c(C)c2)cc1` [Compound 110, (S)-4-Benzyloxy-N-{2-cyclohexyl-1-[2-(4-methoxy-phenylamino)-ethylcarbamoyl]-ethyl}-3,5-dimethyl-benzamide], the “Selectivity for Cat. S over Cat. K” value in test [1] is “++ (++, >100)”. Further, the Ki in test [2] was less than 100 nM.

In the case of `COc1ccc(NCCNC(=O)[C@H](CC2CCCCC2)NC(=O)c2cc(C)c(OC)c(C)c2)cc1` [Compound 111, (S)-N-{2-Cyclohexyl-1-[2-(4-methoxy-phenylamino)-ethylcarbamoyl]-ethyl}-4-methoxy-3,5-dimethyl-benzamide], the “Selectivity for Cat. S over Cat. K” value in test [1] is listed as “++ (++, >100)”. Moreover, the Ki in test [2] was less than 100 nM.

With `COc1ccc(NCCNC(=O)[C@H](CC2CCCCC2)NC(=O)c2ccc(C)c(Br)c2)cc1` [Compound 112, (S)-3-Bromo-N-{2-cyclohexyl-1-[2-(4-methoxy-phenylamino)-ethylcarbamoyl]-ethyl}-4-methyl-benzamide], in test [1], the “Selectivity for Cat. S over Cat. K” value was “++ (++, >100)”. The Ki in test [2] is less than 100 nM.

In the case of `COc1ccc(NCCNC(=O)[C@H](CC2CCCCC2)NC(=O)c2cc3cc(F)ccc3[nH]2)cc1` [Compound 113, (S)-5-Fluoro-1H-indole-2-carboxylic acid {2-cyclohexyl-1-[2-(4-methoxy-phenylamino)-ethylcarbamoyl]-ethyl}-amide], the “Selectivity for Cat. S over Cat. K” value in test [1] is recorded as “+ (+, >10)”. For the same molecule, the Ki in test [2] is less than 100 nM.

As for `COc1ccc(NCCNC(=O)[C@H](CC2CCCCC2)NC(=O)c2sc(N)nc2C)cc1` [Compound 114, (S)-2-Amino-4-methyl-thiazole-5-carboxylic acid {2-cyclohexyl-1-[2-(4-methoxy-phenylamino)-ethylcarbamoyl]-ethyl}-amide], in test [1], the “Selectivity for Cat. S over Cat. K” value is reported as “++ (++, >100)”. In test [2], the Ki is less than 100 nM.

On to `COc1ccc(NCCNC(=O)[C@H](CC2CCCCC2)NC(=O)c2cnn(-c3ccccc3)c2C(F)(F)F)cc1` [Compound 115, (S)-1-Phenyl-5-trifluoromethyl-1H-pyrazole-4-carboxylic acid {2-cyclohexyl-1-[2-(4-methoxy-phenylamino)-ethylcarbamoyl]-ethyl}-amide], for which the “Selectivity for Cat. S over Cat. K” value in test [1] is recorded as “+++ (+++, >1000)”. Also, in test [2], the Ki was less than 100 nM.

With `COc1ccc(NCCNC(=O)[C@H](CC2CCCCC2)NC(=O)c2cnn(-c3ccc(Cl)cc3)c2C(F)(F)F)cc1` [Compound 116, (S)-1-(4-Chloro-phenyl)-5-trifluoromethyl-1H-pyrazole-4-carboxylic acid {2-cyclohexyl-1-[2-(4-methoxy-phenylamino)-ethylcarbamoyl]-ethyl}-amide], the “Selectivity for Cat. S over Cat. K” value in test [1] is reported as “+++ (+++, >1000)”. For the same molecule, in test [2], the Ki was less than 100 nM.

With `COc1ccc(NCCNC(=O)[C@H](CC2CCCCC2)NC(=O)c2cccc(Cl)c2)cc1` [Compound 118, (S)-3-Chloro-N-{2-cyclohexyl-1-[2-(4-methoxy-phenylamino)-ethylcarbamoyl]-ethyl}-benzamide], the “Selectivity for Cat. S over Cat. K” value in test [1] is given as “++ (++, >100)”. For the same molecule, in test [2], the Ki was less than 100 nM.

For the molecule `COc1ccc(NCCNC(=O)[C@H](CC2CCCCC2)NC(=O)c2cccc(N(C)C)c2)cc1` [Compound 119, (S)-N-{2-Cyclohexyl-1-[2-(4-methoxy-phenylamino)-ethylcarbamoyl]-ethyl}-3-dimethylamino-benzamide], the “Selectivity for Cat. S over Cat. K” value in test [1] is “+ (+, >10)”. Also, the Ki in test [2] was less than 100 nM.

Turning to `COc1ccc(NCCNC(=O)[C@H](CC2CCCCC2)NC(=O)c2cccc(C#N)c2)cc1` [Compound 120, (S)-3-Cyano-N-{2-cyclohexyl-1-[2-(4-methoxy-phenylamino)-ethylcarbamoyl]-ethyl}-benzamide], the “Selectivity for Cat. S over Cat. K” value in test [1] is given as “++ (++, >100)”. Also, the Ki in test [2] is less than 100 nM.

As for `COc1ccc(NCCNC(=O)[C@H](CC2CCCCC2)NC(=O)c2ccc(C#N)cc2)cc1` [Compound 121, (S)-4-Cyano-N-{2-cyclohexyl-1-[2-(4-methoxy-phenylamino)-ethylcarbamoyl]-ethyl}-benzamide], the “Selectivity for Cat. S over Cat. K” value in test [1] was “+ (+, >10)”. In addition, in test [2], the inhibitory constant (Ki) is less than 100 nM.

For the molecule `C[C@@H](C(=O)N[C@@H](CC1CCCCC1)C(=O)NCCNc1ccc(OC(F)(F)F)cc1)c1ccccc1` [Compound 122, N-{2-cyclohexyl-1-(S)-[2-(4-trifluoromethoxy-phenylamino)-ethylcarbamoyl]-ethyl}-2-(R)-phenyl-propionamide], the “Selectivity for Cat. S over Cat. K” value in test [1] is reported as “+++ (+++, >1000)”. Further, the Ki in test [2] was less than 100 nM.

As for `COc1ccc(NCCNC(=O)[C@H](CC2CCCCC2)NC(=O)c2cccc(-c3csc(C)n3)c2)cc1` [Compound 123, (S)-N-{2-Cyclohexyl-1-[2-(4-methoxy-phenylamino)-ethylcarbamoyl]-ethyl}-3-(2-methyl-thiazol-4-yl)-benzamide], in test [1], the “Selectivity for Cat. S over Cat. K” value is reported as “++ (++, >100)”. Also, the Ki in test [2] was less than 100 nM.

Regarding `O=C(Cc1cc(F)cc(F)c1)N[C@@H](CC1CCCCC1)C(=O)NCCNc1ccc(F)cc1` [Compound 125, 3-Cyclohexyl-2-(S)-[2-(3,5-difluoro-phenyl)-acetylamino]-N-[2-(4-fluoro-phenylamino)-ethyl]-propionamide], the “Selectivity for Cat. S over Cat. K” value in test [1] is listed as “++ (++, >100)”. Moreover, the Ki in test [2] is less than 100 nM.

Consider `COc1ccc(NCCNC(=O)[C@H](CCC2CCCCC2)NC(=O)c2cccc(C(F)(F)F)c2)cc1` [Compound 126, (S)-N-{3-Cyclohexyl-1-[2-(4-methoxy-phenylamino)-ethylcarbamoyl]-propyl}-3-trifluoromethyl-benzamide], for which the “Selectivity for Cat. S over Cat. K” value in test [1] is “+++ (+++, >1000)”. In test [2], the Ki is less than 100 nM.

On to `COc1ccc(NCCNC(=O)[C@H](CCC2CCCCC2)NC(=O)c2ccc(N3CCOCC3)cc2)cc1` [Compound 127, (S)-N-{3-Cyclohexyl-1-[2-(4-methoxy-phenylamino)-ethylcarbamoyl]-propyl}-4-morpholin-4-yl-benzamide], for which the “Selectivity for Cat. S over Cat. K” value in test [1] is listed as “++ (++, >100)”. In test [2], the Ki was less than 1000 nM.

Consider `COc1ccc(NCCNC(=O)[C@H](CCC2CCCCC2)NC(=O)[C@@H](C)c2ccccc2)cc1` [Compound 128], for which, in test [1], the “Selectivity for Cat. S over Cat. K” value is given as “+++ (+++, >1000)”. The Ki in test [2] is less than 100 nM.

Take `COc1ccc(NCCNC(=O)[C@H](CCC2CCCCC2)NC(=O)c2ccc(OCc3ccccc3)cc2)cc1` [Compound 129, (S)-4-Benzyloxy-N-{3-cyclohexyl-1-[2-(4-methoxy-phenylamino)-ethylcarbamoyl]-propyl}-benzamide]: in test [1], the “Selectivity for Cat. S over Cat. K” value was “+ (+, >10)”. In addition, the Ki in test [2] was less than 10000 nM.

In the case of `COc1ccc(NCCNC(=O)[C@H](CCC2CCCCC2)NC(=O)c2ccc(-c3ccccc3)cc2)cc1` [Compound 130, (S)-Biphenyl-4-carboxylic acid {3-cyclohexyl-1-[2-(4-methoxy-phenylamino)-ethylcarbamoyl]-propyl}-amide], in test [1], the “Selectivity for Cat. S over Cat. K” value was “+ (+, >10)”. The Ki in test [2] was less than 10000 nM.

Consider `COc1ccc(NCCNC(=O)[C@H](CCC2CCCCC2)NC(=O)c2cc3cc(Cl)ccc3[nH]2)cc1` [Compound 131, (S)-5-Chloro-1H-indole-2-carboxylic acid {3-cyclohexyl-1-[2-(4-methoxy-phenylamino)-ethylcarbamoyl]-propyl}-amide], for which the “Selectivity for Cat. S over Cat. K” value in test [1] is “+ (+, >10)”. Further, the Ki in test [2] is less than 10000 nM.

Take `COc1ccc(NCCNC(=O)[C@H](CCC2CCCCC2)NC(=O)c2cc3cc(F)ccc3[nH]2)cc1` [Compound 132, (S)-5-Fluoro-1H-indole-2-carboxylic acid {3-cyclohexyl-1-[2-(4-methoxy-phenylamino)-ethylcarbamoyl]-propyl}-amide]: the “Selectivity for Cat. S over Cat. K” value in test [1] is “++ (++, >100)”. In addition, in test [2], the Ki was less than 1000 nM.
